From publication PMC8412142 (Journal of medicinal chemistry, 2021)

Assays:
[1] = system: MRC5 cells; assay: MRC5 cell toxicity; type: cell-based; details: in words
[2] = Human liver microsome intrinsic clearance; details: human liver microsomes
[3] = system: Caco-2; assay: Caco-2 permeability and efflux assay; type: in vitro ADME
[4] = Mouse plasma stability; type: in vitro ADME; details: in words
[5] = In vivo pharmacokinetics of 29d, 10 mg/kg ip; set-up: species or system BALB/c mice

| Compound | toxicity in mammalian cells [1] | HLM Clint [2] [μg/min/mg protein] | further results |
| --- | --- | --- | --- |
| Cn1cc(-c2cnc3[nH]cc(-c4cccc([N+](=O)[O-])c4)c3c2)cn1 [13t, 5-(1-Methyl-1H-pyrazol-4-yl)-3-(3-nitrophenyl)-1H-pyrrolo[2,3-b]pyridine] | showed signs of toxicity in mammalian cells |  |  |
| 5-(1-methyl-1H-pyrazol-4-yl)-3-(4-(trifluoromethyl)phenyl)-1H-pyrrolo[2,3-b]pyridine [13i] |  | 66 |  |
| Cn1cc(-c2cnc3[nH]cc(-c4ccc(O)cc4)c3c2)cn1 [13u, 4-(5-(1-Methyl-1H-pyrazol-4-yl)-1H-pyrrolo[2,3-b]pyridin-3-yl)phenol] | showed signs of toxicity in mammalian cells |  |  |
| 3-(5-(Piperidin-1-yl)-1H-pyrrolo[2,3-b]pyridin-3-yl)benzonitrile [24c] |  | 44 |  |
| N#Cc1cccc(-c2c[nH]c3ncc(-c4cnn(C5CCNCC5)c4)cc23)c1 [29d] | non-toxic in MRC5 cells |  | Caco-2 efflux / transporter substrate [3]: likely a substrate for P-gp; Caco-2 permeability [3]: low permeability; stability in mouse plasma [4]: stable in mouse plasma; brain penetration [5]: not appreciably brain-penetrant; Mean brain concentration ([5]; sparse sampling, 0.5 h, LLOQ = 9.77 ng/mL): <LLOQ |
